These results are taken from patent US4808589A, “Pyrimidone derivatives” (Smith Kline & French Laboratories Limited, priority 1982, dated 1989).

The test relates to histamine H2 -receptors. Put plainly: inhibition of histamine-stimulated secretion of gastric acid from lumen-perfused stomachs of rats anaesthetised with urethane. Format: in vivo, rat. As to conditions: i.v., lumen-perfused stomach of urethane-anaesthetised rats.

For `Cc1ccc(Cc2cnc(CCSCc3csc(NC(=N)N)n3)[nH]c2=O)cn1.Cl.Cl.Cl.O` [Example 1, 2-[2-(2-guanidino-4-thiazolylmethylthio)ethyl]-5-(6-methyl-3-pyridylmethyl)-4-pyrimidone trihydrochloride hydrate], the “dose causing 50% inhibition of maximal acid secretion” value is recorded as “less than 1 micromole kg^-1”.
The result for `Cc1ccc(Cc2cnc(CCSCc3ccc(CN(C)C)o3)[nH]c2=O)cn1` [Example 2, 2-[2-(5-dimethylaminomethyl-2-furanylmethylthio)ethyl]-5-(6-methyl-3-pyridyl-ylmethyl)-4-pyrimidone] reads “less than 1 micromole kg^-1”.
